Experimental data: patent US10029984B2, “Mono- or di-substituted indole derivatives as dengue viral replication inhibitors” (Janssen Pharmaceuticals, Inc., priority 2015, dated 2018)
pEC50: −log10 of the molar value.

Experiments:
DENV-2 16681 strain = experiment: DENV-2 antiviral assay (eGFP-labeled virus in Vero cells); assay type: cell-based, Dengue virus; conditions: DENV-2 16681 eGFP, MOI 0.5, 3 days, listed as 10B*
Procedure, shortened: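 Vero cells were pre-plated with compound overnight, then infected with eGFP-labeled DENV-2 16681 at MOI 0.5 and incubated 3 days at 37 °C. eGFP fluorescence read by automated microscopy; 9-point 4-fold dilutions (25 μM–0.00038 μM final) in quadruplicate, EC50 by linear interpolation versus virus and cell controls.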

Vero cells = experiment: in vitro; assay type: cell-based; conditions: African green monkey
Procedure, shortened: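 On the same plates after eGFP read-out, resazurin was added and cells incubated a further 5 h at 37 °C, 5% CO2; resorufin fluorescence read with 530 nm excitation. CC50 is the concentration halving resazurin conversion versus cell control; SI = CC50/EC50.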

COc1cc(NC(C(=O)c2c[nH]c3cc(OC)c(C)cc23)c2ccc(F)cc2OC)cc(S(C)(=O)=O)c1 (single isomer, unassigned) [Enantiomer 10B, 2-(4-fluoro-2-methoxyphenyl)-2-((3-methoxy-5-(methylsulfonyl)phenyl)amino)-1-(6-methoxy-5-methyl-1H-indol-3-yl)ethanone]
pEC50 (DENV-2 16681 strain): 9.17 | CC50 (Vero cells): 4500 nM
